Patent US6331287A, “2'-deoxy-2'-fluoro-d-arabinofuranosyl pyrimidine nucleoside” (University Advanced Bio-imaging Associates, priority 1998, dated 2001)
“Also recorded” adds a separate entry of the source. Like-named read-outs stand apart in the source and are kept apart here.

Key:
Vero cells = conditions: in culture; cited from earlier work
[1] = rats, cited from earlier work
host DNA = conditions: cited from earlier work
[2] = dogs, cited from earlier work
[3] = system: organs with rapidly dividing cells such as the small intestine and spleen; conditions: rats; cited from earlier work
PC12 cells = conditions: in culture; cited from earlier work
[4] = mice, cited from earlier work
[5] = cited from earlier work
[6] = system: brain tumor (gliosarcoma); conditions: dogs not infected by herpes simplex virus, PET
[7] = HPLC analysis of plasma samples for radiolabeled metabolites in dogs; format: in vivo; conditions: dog, FMAU over 90 minutes
[8] = Plasma clearance of [^11 C]FMAU or [^11 C]TdR after intravenous bolus in dogs (FIG. 1); format: in vivo; conditions: dog; for plasma clearance: intravenous
viral kinases = conditions: relative to thymidine, cell culture systems; cited from earlier work
mammalian kinases = conditions: relative to thymidine, cell culture systems; cited from earlier work
[9] = patients, Phase I; cited from earlier work
thymidine incorporation = conditions: read-out: ED50 for inhibition of thymidine incorporation; cited from earlier work
[10] = dogs; cited from earlier work
[11] = Storage stability of compound 2; format: physicochemical; conditions: after flash chromatography, anhydrous conditions
Procedure: After purification by flash chromatography compound 2 could be stored at room temperature for at least 10 months under anhydrous conditions. Its melting point was broad due to the fact that a mixture of four diastereomers were probably present. Treatment of compound 2 with n-butyllithium (2.5 equivalent) produced the dianion 3 in situ which was treated with either unlabeled or [^11 C]-methyl iodide to produce the methylated product 4. The major by-product in the methylation reaction was the dehalogenated compound 5. The ratio of the desired product to the by-product was 43:57, as determined by ^1 HNMR integration of the C6 hydrogen. Deprotection of the tetrahydropyranyl ether produced the desired compound FMAU in 82% chemical yield.

[12] = intravenous, through 24 hours, HPLC
[13] = intravenous bolus 20-25 mCi, 50-100 Ci/mmol, two components of approximately equal amplitudes

Question: With Cc1cn([C@@H]2O[C@H](CO)[C@@H](O)[C@@H]2F)[14c](=O)[nH]c1=O [[2-^14 C]-FMAU] as the molecule, how does the “accumulation in proliferating Vero cells” value (Vero cells) read?
Answer: preferentially observed

Question: What about the “composition of urine radioactivity” value [1, 12] of the same molecule?
Answer: primarily of unchanged parent compound

Question: And the “injected radioactivity cleared into the urine” value ([1]; intravenous)?
Answer: Nearly all

Question: And the “four minor metabolites, share of total urine radioactivity” value (from here on “four minor metabolites, share”) ([1]; urine at 24 hr)?
Answer: < 5%

Question: What about the “incorporation into host DNA” value (host DNA) of the same molecule?
Answer: substantial incorporation

Question: And the “composition of urine radioactivity” value [2, 12]?
Answer: primarily of unchanged parent compound

Question: What about the “injected radioactivity cleared into the urine” value ([2]; intravenous) of the same molecule?
Answer: Nearly all

Question: And the “four minor metabolites, share” value ([2]; urine at 24 hr)?
Answer: less than 3%

Question: What about the “accumulation in small intestine and spleen” value [3] of the same molecule?
Answer: preferentially observed

Question: What about the “accumulation in proliferating PC12 cells” value (PC12 cells) of the same molecule?
Answer: preferentially observed

Question: And the “composition of urine radioactivity” value [4, 12]?
Answer: primarily of unchanged parent compound

Question: And the “injected radioactivity cleared into the urine” value ([4]; intravenous)?
Answer: Nearly all

Question: And the “four minor metabolites, share” value ([4]; urine at 24 hr)?
Answer: < 15%

Question: With O=c1[nH]c(=O)n([C@H]2C[C@H](O)[C@@H](CO)O2)cc1[131I] [radioiodinated IUdR] as the molecule, how does the “dehalogenation / deiodination in vivo” value [5] read?
Answer: significant dehalogenation

Question: With [11CH3]c1cn([C@@H]2O[C@H](CO)[C@@H](O)[C@@H]2F)c(=O)[nH]c1=O [[^11 C]FMAU, 2'-fluoro-5-[^11 C-methyl]-1-β-D-arabinofuranosyluracil] as the molecule, how does the “localization in brain tumor / tumor visualization” value [6] read?
Answer: localized selectively within the proliferating cells of brain tumors, but not in normal brain cells; also recorded: the tumor was well visualized; also recorded: accumulated within brain tumor cells that were not infected with herpes simplex virus

Question: And the “radiolabeled metabolites in plasma” value [7]?
Answer: no radiolabeled metabolites

Question: What about the plasma clearance [8] of the same molecule?
Answer: rapid plasma clearance

Question: And the “half time of first exponential component of plasma activity concentration curve” value [8, 13]?
Answer: 2.4 min

Question: What about the “half time of second exponential component of plasma activity concentration curve” value [8, 13] of the same molecule?
Answer: 63 min

Question: What about the plasma clearance ([8]; listed as [^11 C] FMAU) of the same molecule?
Answer: rapid clearance

Question: For Cc1cn([C@@H]2O[C@H](CO)[C@@H](O)[C@@H]2F)c(=O)[nH]c1=O [FMAU, 2'-fluoro-5-methyl-1-β-D-arabinofuranosyluracil], which “phosphorylation by viral kinases” value (viral kinases) is on record?
Answer: good substrate relative to thymidine

Question: What about the “phosphorylation by mammalian kinases” value (mammalian kinases) of the same molecule?
Answer: phosphorylated by mammalian kinases to levels approaching that of thymidine; also recorded: good substrate relative to thymidine

Question: And the “dose above which significant dose-limiting neurotoxicity developed” value [9]?
Answer: above 8 mg/m^2×5 days

Question: What about the IC50 (thymidine incorporation) of the same molecule?
Answer: 8 to 28 µM

Question: What about the “glucuronide adduct of FMAU among trace metabolites” value ([2]; urine, present in all three species) of the same molecule?
Answer: most abundant in dogs

Question: And the LD10 [10]?
Answer: 25 mg/m^2×10 days

Question: Which results are given for [11CH3]c1cn([C@H]2CC(O)[C@@H](CO)O2)c(=O)[nH]c1=O (stereo partly shown) [[^11 C]TdR]?
Answer: radiolabeled metabolites in plasma [7]: progressive rise in radiolabeled metabolites; plasma clearance [8]: rapid plasma clearance

Question: Which “dehalogenation / deiodination in vivo” value [5] does the source give for O=c1[nH]c(=O)n([C@@H]2O[C@H](CO)[C@@H](O)[C@@H]2F)cc1I [FIAU, 2'-Fluoro-5-iodo-1-β-D-arabinofuranosyluracil] here?
Answer: deiodination followed by methylation at the 5 position of the base also can occur prior to DNA incorporation

Question: With Nc1nc(=O)n([C@@H]2O[C@H](CO)[C@@H](O)[C@@H]2F)cc1[125I] [[^125 I] labeled FIAC, [^125 I]2'-fluoro-5-iodo-1-β-D-arabinofuranosyl-cytosine] as the molecule, how does the “dehalogenation / deiodination in vivo” value [5] read?
Answer: extensive deiodination in vivo

Question: With O=c1[nH]c(=O)n([C@@H]2O[C@H](COC3CCCCO3)[C@@H](OC3CCCCO3)[C@@H]2F)cc1I (stereo partly drawn) [compound 2, 3', 5'-O-bis-(tetrahydropyranyl)-2'-fluoro-5-iodo-1-β-D-arabino-furanosyluracil] as the molecule, how does the “storage stability at room temperature” value [11] read?
Answer: at least 10 months
